Where a name gives a salt, the structure may show the parent alone.

For orientation: melting point means the temperature of the solid-liquid transition. In general, Ki refers to a dissociation constant, usually derived from enzyme kinetics or from competition with a known ligand. What is called EC50 is the concentration that produces a half-maximal response.

Series [1] concerns neuropathic pain induced by partial ligation of the sciatic nerve. The series can be described thus: Test III: Neuropathic pain model (partial ligation of the sciatic nerve, mechanical hyperalgesia). The format is in vivo, Wistar-rats. As to conditions: p.o.; dose necessary to produce 50% reversal of hyperalgesia. An excerpt: Activity specifically as analgesic agents may be confirmed in accordance with standard test methods, e.g. as described in the following test. • Test III: Neuropathic Pain Model
Hyperalgesia is examined in the model of neuropathic pain induced by partial ligation of the sciatic nerve as described by Seltzer et al. (1990). Briefly, Wistar-rats (120-140 g) are anaesthetised, the left sciatic nerve exposed at mid-thigh level through a small incision and ⅓ to ½ of the nerve thickness tightly ligated within a 7.0 silk suture. The wound is closed with a single muscle suture and skin clips and dusted with Aureomycin antibiotic powder. The animals are allowed to recover and used 12-15 days following surgery.
Mechanical hyperalgesia is assessed by measuring paw withdrawal thresholds to an increasing pressure stimulus placed onto the dorsal surface of the paw using an analgesymeter (Ugo-Basile, Milan) with a cut-off of 250 g. Withdrawal thresholds are measured on both the ipsilateral (ligated) and contralateral (unligated) paw prior to (predose) and then up to 6 h following drug or vehicle administration. Data are expressed as withdrawal threshold (g) and percentage reversal of hyperalgesia calculated according to the following formula:
[formula] • Potency is expressed as D50 value, i.e. the dose of compound necessary to produce 50% reversal of hyperalgesia.

For another series, the target named is T1, human CB2 receptors (Homo sapiens, UniProt P34972).
T1 construct: purchased Receptor Biology, Beltsville, Md; host or cells: CHOK1 cells (transfected), membrane preparation
The series is described as follows: Test II: CB2 receptor binding assay ([3H]CP55940 displacement). As to conditions: membranes from CHOK1 cells, Ki from IC50 by Cheng-Prussoff. On the procedure: (§1) The assay mixture comprises 75 μL of membrane suspension [membranes from CHOK1 cells transfected with human CB2 receptors from Receptor Biology, Beltsville, Md.; 133 μg/mL in assay buffer (50 mM Tris-HCl, 2.5 mM EDTA, 5 mM MgCl2 5 mg/mL BSA, pH7.4), approx, 10 μg/well)], 25 μL WGA-YS beads [Yttrium silicate beads coated with wheat germ agglutinin, Amersham (40 mg/mL, 1 mg/well)), 50 μL test compound in 4% DMSO and 50 μL radioligand {[^3H]CP55940 (180 Ci/mmol), New England Nuclear; final concentration 0.125 nM, in assay buffer}. All components are mixed, shaken at room temperature for 2 hours, then counted on a Topcount. Non-saturable binding is measured in the presence of 10 μM (R)-(+)-[2,3-d]hydro-5-methyl-3-[(4-morpholinyl)methyl]pyrrolo[1,2,3-de]-1,4-benzoxazin-6-yl](1-naphthalenyl)methanone (WIN55,212-2, Tocris).
The IC50 values are calculated in ORIGIN using a logistic fit. Ki values are calculated from the IC50 values using the Cheng-Prussoff equation (Ki=IC50/(1+([L]/Kd)) where [L] is the ligand concentration.

The target of series [2] is T2, hCB1 receptor (Homo sapiens, UniProt P21554). The series can be described thus: Test I: CB1 receptor binding assay ([3H]CP55940 displacement). Set-up: purchased Receptor Biology, Beltsville, Md; host or cells: HEK293 cells (transfected), membrane preparation. As to conditions: membranes from HEK293 cells, Ki from IC50 by Cheng-Prussoff. On the procedure:
More particularly the agents of the invention are active at the human CB1 and CB2 receptor.
as §1, with “HEK293” for “CHOK1”, “CB1” for “CB2”, “mg/well)],” for “mg/well)),”, “(R)-(+)-[2,3-dihydro-5-methyl-3-[(4-morpholinyl)methyl]pyrrolo[1,2,3-de]-1,4-benzoxazin-6-yl](1-naphthalenyl)methanone” for “(R)-(+)-[2,3-d]hydro-5-methyl-3-[(4-morpholinyl)methyl]pyrrolo[1,2,3-de]-1,4-benzoxazin-6-yl](1-naphthalenyl)methanone”
The IC50 values are calculated in ORIGIN using a logistic fit. Ki values are calculated from the IC50 values using the Cheng-Prussoff equation (Ki=IC50/(1+([L]/Kd)) where [L] is the ligand concentration. • Test II: CB2 Receptor Binding Assay

Series [3] concerns the target T2, hCB1 receptor. The series can be described thus: Test IV: CB1 functional assay ([35S]GTPγS binding). The series is classed as biochemical. On the set-up: purchased Receptor Biology Inc RBhCB1 382200; host or cells: HEK293 cells, membrane preparation. As to conditions: hCB1 receptor membrane (HEK293 cells). In general terms: GTPγS is a poorly hydrolysed GTP analogue; its binding reports G protein activation.
Procedure: G-protein activation is used as a functional measure of receptor-ligand association for G-protein coupled receptors. The basic mechanism behind G-protein activation is the exchange of bound guanosine 5′-diphosphate (GDP) for guanosine 5′-triphosphate (GTP). Using a radioactive, non-hydrolyzable form of GTP, such as guanosine 5′-O-(3-[^35S]thiophosphate ([^35S]GTPγS), G-protein activation is assessed by measuring the accumulation of membrane-bound radioactivity in response to receptor activation.
The plate is sealed with a topseal A cover and vortexed for 2 minutes. The plate is incubated at room temperature for 60 min., centrifuged (Beckman 6JB) at 800 g for 5 minutes and counted on a Topcount for 3 minutes.
Non-specific binding is determined using 10 μM GTPγS, and this is subtracted from all values. Basal binding is assayed in the absence of agonist and in the presence of GDP. The stimulation by agonist is defined as a percentage increase above basal levels, i.e., {[cpm(agonist)−cpm(no agonist)]/cpm(no agonist)}×100
Data are reported as mean ±S.E.M. of one to six experiments performed in triplicate. Non-linear regression analysis of concentration-response data is performed using Origin version 5, (logistics algorithm; Microcal Software Inc. MA, USA) to calculate percentage maximal effect (Emax, %) and EC50 (nM) values. […]

T2 sequence (P21554 whole entry): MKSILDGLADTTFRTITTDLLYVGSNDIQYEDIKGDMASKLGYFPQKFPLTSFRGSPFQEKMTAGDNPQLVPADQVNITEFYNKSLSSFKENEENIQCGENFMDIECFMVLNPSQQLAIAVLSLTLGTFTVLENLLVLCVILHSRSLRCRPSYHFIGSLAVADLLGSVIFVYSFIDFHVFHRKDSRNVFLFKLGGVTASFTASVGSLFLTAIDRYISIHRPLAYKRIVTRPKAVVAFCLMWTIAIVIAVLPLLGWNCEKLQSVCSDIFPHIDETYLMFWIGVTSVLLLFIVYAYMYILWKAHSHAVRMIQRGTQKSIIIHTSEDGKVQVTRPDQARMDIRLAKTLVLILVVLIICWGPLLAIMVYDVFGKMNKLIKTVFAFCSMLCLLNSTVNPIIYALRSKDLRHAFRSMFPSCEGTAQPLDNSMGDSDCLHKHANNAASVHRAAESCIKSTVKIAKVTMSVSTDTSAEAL
T1 sequence (P34972 whole entry): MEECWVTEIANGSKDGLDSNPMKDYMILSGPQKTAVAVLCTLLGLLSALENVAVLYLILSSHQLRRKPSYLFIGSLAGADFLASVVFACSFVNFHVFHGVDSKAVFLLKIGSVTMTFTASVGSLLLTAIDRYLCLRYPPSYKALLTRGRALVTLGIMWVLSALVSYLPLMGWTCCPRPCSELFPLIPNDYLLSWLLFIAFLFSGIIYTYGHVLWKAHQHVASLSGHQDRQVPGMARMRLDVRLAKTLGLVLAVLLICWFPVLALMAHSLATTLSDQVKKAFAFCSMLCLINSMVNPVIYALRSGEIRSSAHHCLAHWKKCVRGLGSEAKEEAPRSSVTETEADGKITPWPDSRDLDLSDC

`CCNC(=O)OCc1nc2cc(C)c(C(=O)OCC)c(C)c2c(=O)n1-c1ccccc1S(=O)(=O)NC` (as salt: hydrochloride) registered a melting point of 126 to 130 °C.

Turning to `CCOC(=O)c1c(C)cc2nc(COC(=O)NCCO)n(-c3ccccc3S(=O)(=O)NC)c(=O)c2c1C` [Example 2, 2-(2-Hydroxy-ethylcarbamoyloxymethyl)-5,7-dimethyl-3-(2-methylsulfamoyl-phenyl)-4-oxo-3,4-dihydro-quinazoline-6-carboxylic acid ethyl ester], in series [1], the “D50 value in the neuropathic pain model of test III” value was 0.5 mg/kg. For the same compound, the Ki on human CB2 receptors turned out to be 11 ± 3.5 nM; on hCB1 receptor [2], 34 ± 3 nM. On hCB1 receptor [3], this compound yielded an EC50 of 132 ± 19 nM.

Source of the values: patent US8552015B2, “Quinazolinone derivatives and their use as CB agonists” (Novartis AG, priority 2002, dated 2013).
